Measured values published in PubChem BioAssay AID330 (DTP/NCI, 2004).
Where “and” joins values, the source holds several entries; their conditions need not be identical. Identical values can stand only once. Toxic doses and inconclusive results are not listed.

System: P388 leukemia ip, CD2F1 mice, survival T/C
Assay: NCI In Vivo Anticancer Drug Screen. Data for tumor model P388 Leukemia (intraperitoneal) in CD2F1 (CDF1) mice
Conditions: endpoint: median survival time, higher = longer survival
Summary of the method: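 Mice carrying the transplanted tumor received test compound or vehicle. Survival was recorded in each group, and the value is the treated-group measurement divided by that of the vehicle-treated control group.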

[1] = dose: 12.5 mg/kg/injection, schedule: Q01DX005 (ip), vehicle: Klucel (hydroxypropylcellulose) (HPC)
[2] = dose: 25.0 mg/kg/injection, schedule: Q01DX005 (ip), vehicle: Klucel (hydroxypropylcellulose) (HPC)
[3] = dose: 50.0 mg/kg/injection, schedule: Q01DX005 (ip), vehicle: Klucel (hydroxypropylcellulose) (HPC)
[4] = dose: 50.0 mg/kg/injection, schedule: Q01DX009 (ip), vehicle: saline with Tween-80
[5] = dose: 100.0 mg/kg/injection, schedule: Q01DX009 (ip), vehicle: saline with Tween-80
[6] = dose: 200.0 mg/kg/injection, schedule: Q01DX009 (ip), vehicle: saline with Tween-80
[7] = dose: 60.0 mg/kg/injection, schedule: Q01DX005 (ip), vehicle: saline with Tween-80
[8] = dose: 120.0 mg/kg/injection, schedule: Q01DX005 (ip), vehicle: saline with Tween-80
[9] = dose: 240.0 mg/kg/injection, schedule: Q01DX005 (ip), vehicle: saline with Tween-80

In the case of Clc1ccc(-c2nc(CSc3ccccn3)cs2)cc1, the T/C (dose: 50.0 mg/kg/injection, schedule: Q01DX009 (ip), vehicle: saline) is reported as 102 % of control, the T/C (dose: 100.0 mg/kg/injection, schedule: Q01DX009 (ip), vehicle: saline) is reported as 109 % of control and the T/C (dose: 200.0 mg/kg/injection, schedule: Q01DX009 (ip), vehicle: saline) is reported as 105 % of control.

With COc1cc([C@@H]2c3cc4c(c(OC)c3C[C@H]3COC(=O)[C@@H]32)OCO4)cc(OC)c1OC the T/C [1] was 100 % of control, the T/C [2] was 103 % of control and the T/C [3] was 103 % of control and 111 % of control.

O=C(O)C1C2C=CC(C1C(=O)O)N(/C=C/c1ccccc1)C2=O (stereo not given) was tested, and the T/C (dose: 100.0 mg/kg/injection, schedule: Q04DX003 (ip), vehicle: Klucel (hydroxypropylcellulose) (HPC)) was 102 % of control, the T/C (dose: 200.0 mg/kg/injection, schedule: Q04DX003 (ip), vehicle: Klucel (hydroxypropylcellulose) (HPC)) was 91 % of control and the T/C (dose: 400.0 mg/kg/injection, schedule: Q04DX003 (ip), vehicle: Klucel (hydroxypropylcellulose) (HPC)) was 90 % of control.

In the case of CCCCNC(=O)OCC1=C(COC(=O)NCCCC)C2OC1C(C(=O)OC)=C2C(=O)OC, the T/C (dose: 3.13 mg/kg/injection, schedule: Q01DX009 (ip), vehicle: distilled water + Tween-80) is reported as 109 % of control, the T/C (dose: 6.25 mg/kg/injection, schedule: Q01DX009 (ip), vehicle: distilled water + Tween-80) is reported as 101 % of control and 108 % of control and 113 % of control and the T/C (dose: 50.0 mg/kg/injection, schedule: Q01DX009 (ip), vehicle: distilled water + Tween-80) is reported as 104 % of control and 108 % of control. The T/C (dose: 100.0 mg/kg/injection, schedule: Q01DX009 (ip), vehicle: distilled water + Tween-80) was 95 % of control.

For CCN(CC)c1c(C)c(-c2ccccc2)oc(=O)c1-c1ccccc1, the T/C (dose: 50.0 mg/kg/injection, schedule: Q01DX009 (ip), vehicle: Klucel (hydroxypropylcellulose) (HPC)) was 105 % of control, the T/C (dose: 100.0 mg/kg/injection, schedule: Q01DX009 (ip), vehicle: Klucel (hydroxypropylcellulose) (HPC)) was 100 % of control and the T/C (dose: 200.0 mg/kg/injection, schedule: Q01DX009 (ip), vehicle: Klucel (hydroxypropylcellulose) (HPC)) was 100 % of control.

For COc1ccc(C2OC(N)=C(O)C2=O)cc1OC (stereo not given), the T/C (dose: 60.0 mg/kg/injection, schedule: Q01DX005 (ip), vehicle: Klucel (hydroxypropylcellulose) (HPC)) was 100 % of control, the T/C (dose: 120.0 mg/kg/injection, schedule: Q01DX005 (ip), vehicle: Klucel (hydroxypropylcellulose) (HPC)) was 91 % of control and the T/C (dose: 240.0 mg/kg/injection, schedule: Q01DX005 (ip), vehicle: Klucel (hydroxypropylcellulose) (HPC)) was 95 % of control.

With CC1=C(/C=C/C(C)=C/C=C/C(C)=C/C(=O)Nc2ccc(O)cc2)C(C)(C)CCC1 the T/C (dose: 25.0 mg/kg/injection, schedule: Q01DX005 (ip), vehicle: saline with Tween-80) was 97 % of control and the T/C (dose: 50.0 mg/kg/injection, schedule: Q01DX005 (ip), vehicle: saline with Tween-80) was 90 % of control.

With OCC(O)CCBr (stereo not given) the T/C (dose: 12.5 mg/kg/injection, schedule: Q01DX009 (ip), vehicle: saline with Tween-80) was 107 % of control, the T/C (dose: 25.0 mg/kg/injection, schedule: Q01DX009 (ip), vehicle: saline with Tween-80) was 107 % of control and the T/C [4] was 114 % of control and 96 % of control. For the same compound, the T/C [5] was 89 % of control, the T/C (dose: 100.0 mg/kg/injection, schedule: Q04DX003 (ip), vehicle: saline) was 118 % of control and the T/C [6] was 95 % of control. The T/C (dose: 200.0 mg/kg/injection, schedule: Q04DX003 (ip), vehicle: saline) was 122 % of control, the T/C (dose: 264.0 mg/kg/injection, schedule: Q01DX009 (ip), vehicle: saline sonified) was 159 % of control and the T/C (dose: 264.0 mg/kg/injection, schedule: Q04DX003 (ip), vehicle: saline) was 110 % of control. The T/C (dose: 400.0 mg/kg/injection, schedule: Q01DX009 (ip), vehicle: saline sonified) was 181 % of control, the T/C (dose: 600.0 mg/kg/injection, schedule: Q01DX009 (ip), vehicle: saline sonified) was 186 % of control and the T/C (dose: 600.0 mg/kg/injection, schedule: Q04DX003 (ip), vehicle: saline) was 115 % of control.

O=C(C/[N+]([O-])=C/c1ccccc1)OCc1ccccc1 was tested, and the T/C (dose: 12.5 mg/kg/injection, schedule: Q01DX009 (ip), vehicle: other) was 112 % of control, the T/C (dose: 25.0 mg/kg/injection, schedule: Q01DX009 (ip), vehicle: other) was 112 % of control and the T/C (dose: 50.0 mg/kg/injection, schedule: Q01DX009 (ip), vehicle: other) was 95 % of control. For the same compound, the T/C (dose: 100.0 mg/kg/injection, schedule: Q01DX009 (ip), vehicle: other) was 88 % of control and the T/C (dose: 200.0 mg/kg/injection, schedule: Q01DX009 (ip), vehicle: other) was 104 % of control.

COc1cc(OC)c2cc(C(=O)c3cccc4ccccc34)c(=O)oc2c1 was tested, and the T/C [7] was 102 % of control, the T/C [8] was 114 % of control and the T/C [9] was 91 % of control.

For O=C(OCC1OC(n2cc(C(F)(F)F)c(=O)[nH]c2=O)CC1O)c1ccc([N+](=O)[O-])cc1 (stereo not given), the T/C (dose: 6.25 mg/kg/injection, schedule: Q01DX005 (ip), vehicle: Klucel (hydroxypropylcellulose) (HPC)) was 110 % of control, the T/C [1] was 110 % of control and the T/C [2] was 115 % of control. The T/C [3] was 161 % of control.

With O=C(Oc1ccc2c(=O)cc(-c3ccccc3)oc2c1OC(=O)c1ccccc1)c1ccccc1 the T/C [7] was 94 % of control, the T/C [8] was 93 % of control and the T/C [9] was 90 % of control.

For Nc1nc(N)c2cc(S(=O)(=O)c3ccc(Cl)cc3)ccc2n1, the T/C [4] was 100 % of control, the T/C [5] was 98 % of control and the T/C [6] was 97 % of control.

For COc1ccc(Cc2cc(C(C)(C)C)cc(C(C)(C)C)c2O)cc1, the T/C (dose: 50.0 mg/kg/injection, schedule: Q01DX005 (ip), vehicle: distilled water + alcohol) was 96 % of control, the T/C (dose: 100.0 mg/kg/injection, schedule: Q01DX005 (ip), vehicle: distilled water + alcohol) was 96 % of control and the T/C (dose: 200.0 mg/kg/injection, schedule: Q01DX005 (ip), vehicle: distilled water + alcohol) was 95 % of control.

For CCCCCC1([N+](=O)[O-])CN(C)CC2CCCCN2C1 (stereo not given), the T/C (dose: 100.0 mg/kg/injection, schedule: Q04DX002 (ip), vehicle: saline) was 102 % of control and the T/C (dose: 200.0 mg/kg/injection, schedule: Q04DX002 (ip), vehicle: saline) was 102 % of control.

For Cc1ccc([N+](=O)[O-])cc1NC(=O)COc1cc(Cl)c(Cl)cc1Cl, the T/C (dose: 100.0 mg/kg/injection, schedule: Q04DX003 (ip), vehicle: saline with Tween-80) was 90 % of control, the T/C (dose: 200.0 mg/kg/injection, schedule: Q04DX003 (ip), vehicle: saline with Tween-80) was 90 % of control and the T/C (dose: 400.0 mg/kg/injection, schedule: Q04DX003 (ip), vehicle: saline with Tween-80) was 95 % of control.

With Cc1ccccc1NC(CCN1CCCCC1)=NC(C)(C)C the T/C [4] was 111 % of control, the T/C [5] was 103 % of control and the T/C [6] was 100 % of control.

S=c1ncnc2c1ccc1[nH][nH]cc12 was tested, and the T/C (dose: 100.0 mg/kg/injection, schedule: Q04DX002 (ip), vehicle: saline with Tween-80) was 88 % of control, the T/C (dose: 200.0 mg/kg/injection, schedule: Q04DX002 (ip), vehicle: saline with Tween-80) was 92 % of control and the T/C (dose: 400.0 mg/kg/injection, schedule: Q04DX002 (ip), vehicle: saline with Tween-80) was 107 % of control.

With CC(=O)OC(=O)c1c(OC(C)=O)cc(C)c2c1CC(C1(C)CO1)CC2 (stereo not given) the T/C (dose: 1.88 mg/kg/injection, schedule: Q01DX005 (ip), vehicle: Klucel (hydroxypropylcellulose) (HPC)) was 100 % of control, the T/C (dose: 3.75 mg/kg/injection, schedule: Q01DX005 (ip), vehicle: Klucel (hydroxypropylcellulose) (HPC)) was 99 % of control and the T/C (dose: 7.5 mg/kg/injection, schedule: Q01DX005 (ip), vehicle: Klucel (hydroxypropylcellulose) (HPC)) was 100 % of control. The T/C (dose: 15.0 mg/kg/injection, schedule: Q01DX005 (ip), vehicle: Klucel (hydroxypropylcellulose) (HPC)) was 100 % of control and the T/C (dose: 30.0 mg/kg/injection, schedule: Q01DX005 (ip), vehicle: Klucel (hydroxypropylcellulose) (HPC)) was 101 % of control.

In the case of O=C1OCc2cnccc21, the T/C (dose: 8.75 mg/kg/injection, schedule: Q01DX005 (ip), vehicle: Klucel (hydroxypropylcellulose) (HPC)) is reported as 98 % of control, the T/C (dose: 17.5 mg/kg/injection, schedule: Q01DX005 (ip), vehicle: Klucel (hydroxypropylcellulose) (HPC)) is reported as 100 % of control and the T/C (dose: 35.0 mg/kg/injection, schedule: Q01DX005 (ip), vehicle: Klucel (hydroxypropylcellulose) (HPC)) is reported as 97 % of control.

With CCCCCCCCCCCCOC(=O)/C=C\C(=O)NC(N)=O the T/C (dose: 100.0 mg/kg/injection, schedule: Q04DX002 (ip), vehicle: Klucel (hydroxypropylcellulose) (HPC)) was 117 % of control and the T/C (dose: 200.0 mg/kg/injection, schedule: Q04DX002 (ip), vehicle: Klucel (hydroxypropylcellulose) (HPC)) was 123 % of control.
